{"source": "patent US20110190129A1", "about": "“IMPROVEMENTS IN OR RELATING TO ORGANIC COMPOUNDS” (SYNGENTA LIMITED, priority 2007, published 2011)", "experiment": "Solubility of pesticide samples in solvents (equilibration, 25 C, HPLC analysis)", "assay_type": "physicochemical", "description": "The following general method is used to measure the solubility of pesticide samples in solvents. A 2 ml aliquot of solvent is added to a 5 ml volume glass vial. Pesticide is added such that half of the volume of the liquid is filled. The sample is shaken for one minute and left to stand for 24 hours. Samples which have dissolved are refilled with more of the pesticide, shaken and left for a further 24 hours. This process is continued until the samples have equilibrated for three days without the need for further pesticide addition. The samples are then placed in a temperature controlled oven at 25 C for one week prior to analysis by high pressure liquid chromatography. All samples are filtered and centrifuged prior to chromatographic analysis.", "key": {"[1]": {"conditions": "comparison in words, dimethyl lactamide versus the other two solvents"}, "[2]": {"conditions": "solvent Solvesso 200ND, 25 C, Table 1"}, "[3]": {"conditions": "solvent acetophenone, 25 C, Table 1"}, "[4]": {"conditions": "solvent dimethyl lactamide, 25 C, Table 1"}}, "note": "Like-named read-outs stand apart in the source and are kept apart here. Marks after values point to notes of the source that are not given here."}
{"compound": "CCNc1nc(NC(C)C)nc(SC)n1", "note": "[Ametryn]", "values": [{"measurement": "Solubility in Solvesso 200ND", "setting": "1 week", "result": 29.3, "unit": "% w/w"}, {"measurement": "Solubility in acetophenone", "setting": "1 week", "result": 47.4, "unit": "% w/w"}, {"measurement": "Solubility in dimethyl lactamide", "setting": "1 week", "result": 53.0, "unit": "% w/w"}]}
{"compound": "N#Cc1c[nH]cc1-c1cccc2c1OC(F)(F)O2", "note": "[Fludioxynil]", "values": [{"measurement": "Solubility in dimethyl lactamide compared with Solvesso 200ND or acetophenone", "setting": "[1]", "result": "better"}, {"measurement": "Solubility in Solvesso 200ND", "setting": "[2]", "result": 0.3, "unit": "% w/w"}, {"measurement": "Solubility in acetophenone", "setting": "[3]", "result": 8.5, "unit": "% w/w"}, {"measurement": "Solubility in dimethyl lactamide", "setting": "[4]", "result": 30.1, "unit": "% w/w"}]}
{"compound": "CSc1nc(NC(C)C)nc(NC(C)C)n1", "note": "[Prometryn, prometryn]", "values": [{"measurement": "Solubility in dimethyl lactamide compared with Solvesso 200ND or acetophenone", "result": "better"}, {"measurement": "Solubility in Solvesso 200ND", "setting": "1 week", "result": 12, "unit": "% w/w"}, {"measurement": "Solubility in acetophenone", "setting": "1 week", "result": 19, "unit": "% w/w"}, {"measurement": "Solubility in dimethyl lactamide", "setting": "1 week", "result": 43, "unit": "% w/w"}]}
{"compound": "CCN(CC)C(=O)C(C)Oc1cccc2ccccc12", "note": "(stereo not drawn) [Napropamide, napropamide]", "values": [{"measurement": "Solubility in Solvesso 200ND", "result": 20.7}, {"measurement": "Solubility in acetophenone", "result": 27.6, "unit": "% w/w"}, {"measurement": "Solubility in dimethyl lactamide", "result": 19.2, "unit": "% w/w"}, {"measurement": "Solubility in dimethyl lactamide compared with Solvesso 200ND or acetophenone", "result": "lower"}]}
{"compound": "CN1COCN(Cc2cnc(Cl)s2)/C1=N\\[N+](=O)[O-]", "note": "[Thiamethoxam, thiamethoxam]", "values": [{"measurement": "Solubility in dimethyl lactamide compared with Solvesso 200ND or acetophenone", "setting": "[1]", "result": "better"}, {"measurement": "Solubility in Solvesso 200ND", "setting": "[2]", "result": 0.2, "unit": "% w/w"}, {"measurement": "Solubility in acetophenone", "setting": "[3]", "result": 5.0, "unit": "% w/w"}, {"measurement": "Solubility in dimethyl lactamide", "setting": "[4]", "result": 9.0, "unit": "% w/w"}]}
{"compound": "CNC(=O)c1cc(Cl)cc(C)c1NC(=O)c1cc(Br)nn1-c1ncccc1Cl", "note": "[Rynaxypry]", "values": [{"measurement": "Solubility in Solvesso 200ND", "setting": "[2]", "result": 0.06, "unit": "% w/w"}, {"measurement": "Solubility in acetophenone", "setting": "[3]", "result": 0.75, "unit": "% w/w"}, {"measurement": "Solubility in dimethyl lactamide", "setting": "[4]", "result": 2.8, "unit": "% w/w"}]}
{"compound": "Fc1ccc([C@]2(Cn3cncn3)O[C@H]2c2ccccc2Cl)cc1", "note": "(racemic) [Epoxiconazole, epoxiconazole]", "values": [{"measurement": "Solubility in Solvesso 200ND", "setting": "1 week", "result": 2.5, "unit": "% w/w"}, {"measurement": "Solubility in dimethyl lactamide", "setting": "1 week", "result": 8.0, "unit": "% w/w"}]}
{"compound": "N#Cc1c(Cl)c(Cl)c(Cl)c(C#N)c1Cl", "note": "[Chlorothalonil, chlorothalonil]", "values": [{"measurement": "Solubility in dimethyl lactamide compared with Solvesso 200ND or acetophenone", "setting": "[1]", "result": "lower"}]}
{"compound": "CN(C)C(=O)Nc1ccc(Cl)c(Cl)c1", "note": "[Diuron]", "values": [{"measurement": "Solubility in Solvesso 200ND", "setting": "[2]", "result": "<0.2* % w/w"}, {"measurement": "Solubility in acetophenone", "setting": "[3]", "result": 4.8, "unit": "% w/w"}, {"measurement": "Solubility in dimethyl lactamide", "setting": "[4]", "result": 11.0, "unit": "% w/w"}]}
{"compound": "CCO/N=C(\\CC)C1=C(O)CC(c2c(C)cc(C)cc2C)CC1=O", "note": "(stereo not drawn) [Tralkoxydim, tralkoxydim]", "values": [{"measurement": "Solubility in acetophenone", "result": 12.7, "unit": "% w/w"}, {"measurement": "Solubility in dimethyl lactamide", "result": 3.2, "unit": "% w/w"}, {"measurement": "Solubility in dimethyl lactamide compared with Solvesso 200ND or acetophenone", "result": "lower"}]}
{"compound": "CC(C)C1C2CCC1c1c(NC(=O)c3cn(C)nc3C(F)F)cccc12", "note": "(stereo not drawn) [Compound of FIG. 2, 3-difluoromethyl-1-methyl-1H-pyrazole-4-carboxylic acid(9-isopropyl-1,2,3,4-tetrahydro-1,4-methano-naphthalen-5-yl)-amide]", "values": [{"measurement": "Solubility in dimethyl lactamide compared with Solvesso 200ND or acetophenone", "setting": "[1]", "result": "better"}, {"measurement": "Solubility in Solvesso 200ND", "setting": "[2]", "result": 5.6, "unit": "% w/w"}, {"measurement": "Solubility in acetophenone", "setting": "[3]", "result": 14.1, "unit": "% w/w"}, {"measurement": "Solubility in dimethyl lactamide", "setting": "[4]", "result": 32.1, "unit": "% w/w"}]}
{"compound": "CCCCC(O)(Cn1cncn1)c1ccc(Cl)cc1Cl", "note": "(stereo not drawn) [Hexaconazole, hexaconazole]", "values": [{"measurement": "Solubility in dimethyl lactamide compared with Solvesso 200ND or acetophenone", "result": "better"}, {"measurement": "Solubility in Solvesso 200ND", "setting": "1 week", "result": 4.4, "unit": "% w/w"}, {"measurement": "Solubility in acetophenone", "setting": "1 week", "result": 11.7, "unit": "% w/w"}, {"measurement": "Solubility in dimethyl lactamide", "setting": "1 week", "result": 18, "unit": "% w/w"}]}
